Results reported in patent US5824699A, “Carbazole inhibitors of Cox-2” (American Home Products Corporation, priority 1998, dated 1998).
Where a name gives a salt, the structure may show the parent alone. Read-outs that look alike come from different tables or passages of the source. Blank lines part the entries; values can stand above or below the compound they belong to.

Experiments:
prostaglandin synthesis = settings: Humber et al., J. Med. Chem. 31, 1712-1719 (1988); U.S. Pat. No. 4,686,213; cited from earlier work
[1] = Humber et al., J. Med. Chem. 31, 1712-1719 (1988); cited from earlier work
human COX-2 (rhCOX-2) = target: T1, human COX-2 (rhCOX-2) (Homo sapiens, UniProt P35354); assay: inhibition of microsomal human recombinant COX-2 (PGH2 converted to PGF2a, quantified by EIA); format: biochemical; settings: for IC50: rhCOX-2, value in parentheses = IC50, 30 μM arachidonic acid, read-out: % Inhib of rhCOX-2 (IC50); for inhibition at 3 µM: rhCOX-2, at 3 μM; for inhibition at 1 µM: rhCOX-2, at 1 μM; for inhibition at 3.3 µM: rhCOX-2, at 3.3 μM (* sodium salt for Example 19)
T1 construct: made in house; host or cells: Sf9 or CHO cells (microsomal preparation)
T1 sequence (P35354 18-604): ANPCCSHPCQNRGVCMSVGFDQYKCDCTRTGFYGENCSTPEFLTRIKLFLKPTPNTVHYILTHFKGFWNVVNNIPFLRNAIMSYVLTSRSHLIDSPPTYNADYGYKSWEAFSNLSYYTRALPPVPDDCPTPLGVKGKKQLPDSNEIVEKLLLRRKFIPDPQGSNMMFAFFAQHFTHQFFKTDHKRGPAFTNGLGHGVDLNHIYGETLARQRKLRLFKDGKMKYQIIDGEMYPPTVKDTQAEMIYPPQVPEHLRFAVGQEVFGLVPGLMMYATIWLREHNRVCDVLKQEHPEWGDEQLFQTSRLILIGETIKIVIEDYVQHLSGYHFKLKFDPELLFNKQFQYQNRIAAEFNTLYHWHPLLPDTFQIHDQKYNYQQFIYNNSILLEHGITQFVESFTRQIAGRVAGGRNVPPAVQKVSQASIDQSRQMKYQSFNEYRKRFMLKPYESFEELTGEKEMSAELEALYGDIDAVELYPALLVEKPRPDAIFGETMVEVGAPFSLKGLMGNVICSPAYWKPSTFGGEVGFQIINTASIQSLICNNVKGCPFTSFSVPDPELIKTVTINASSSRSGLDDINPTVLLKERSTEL
Description: (§1) The microsomal human recombinant enzymes were diluted with buffer (100 mM Tris, pH 7.8 at 37° C.) containing 0.5 mM phenol (964 μl total volume). The enzyme preparations were preincubated with vehicle (DMSO) or compounds in DMSO (1% DMSO in final assay) for 30 min at […]
(§2) The reaction was incubated for 35 s (maximum level of PGH2 accumulation as determined from time course studies), and terminated by addition of 50-60 μL of SnCl2 (1 mg/ml) in 0.1N HCl. PGH2 is quantitatively converted to PGF2a by this reaction ([…] of total conversion). The pH of each tube is adjusted to pH 3.0-3.5 with 1N NaOH and extracted twice with 1.5 ml of ethyl acetate (75-90% efficiency per extraction). Combined ethyl acetate layers were dried under N2 (g) and redissolved in EIA buffer (2.0 ml), and PGF2a was quantified by EIA.

human COX-1 (rhCOX-1) = target: T2, human COX-1 (rhCOX-1) (Homo sapiens, UniProt P23219); assay: inhibition of microsomal human recombinant COX-1 (PGH2 converted to PGF2a, quantified by EIA); format: biochemical
T2 construct: made in house; host or cells: Sf9 or CHO cells (microsomal preparation)
T2 sequence (P23219 24-599): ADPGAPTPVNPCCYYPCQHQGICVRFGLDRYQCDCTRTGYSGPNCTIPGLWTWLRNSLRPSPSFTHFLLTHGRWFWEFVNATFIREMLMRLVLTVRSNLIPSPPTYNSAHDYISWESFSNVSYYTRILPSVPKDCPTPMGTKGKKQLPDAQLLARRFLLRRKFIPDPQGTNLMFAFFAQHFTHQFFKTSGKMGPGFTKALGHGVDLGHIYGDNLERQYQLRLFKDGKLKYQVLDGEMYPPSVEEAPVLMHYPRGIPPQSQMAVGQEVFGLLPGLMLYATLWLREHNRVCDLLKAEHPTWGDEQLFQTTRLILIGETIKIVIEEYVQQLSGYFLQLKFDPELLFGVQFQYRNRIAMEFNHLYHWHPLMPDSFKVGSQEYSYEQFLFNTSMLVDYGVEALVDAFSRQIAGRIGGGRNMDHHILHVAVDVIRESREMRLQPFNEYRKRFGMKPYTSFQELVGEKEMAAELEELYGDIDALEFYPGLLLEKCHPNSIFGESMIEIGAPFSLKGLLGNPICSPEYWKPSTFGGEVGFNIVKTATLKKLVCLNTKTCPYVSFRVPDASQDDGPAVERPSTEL
Description: as §1, §2

COX-2 = settings: Glaser et al., Eur. J. Pharmacol. 281, 107-111 (1995); cited from earlier work
[2] = cited from earlier work
[3] = Rogers et al., Neurology 43, 1609-1611 (1993); cited from earlier work
[4] = Table 1, rhCOX-1, at 90 μM, read-out: % Inhibition of rhCOX-1
[5] = Table 1, read-out: % Inhib of rhCOX-2
[6] = Table 2, read-out: % Inhib of rhCOX-2
[7] = Table 2, rhCOX-1, at 90 μM, read-out: % Inhibn of rhCOX-1
[8] = Table 3, read-out: Inhib rhCOX-2
[9] = Table 3, rhCOX-1, at 90 μM (* sodium salt for Example 19), read-out: % Inhib rhCOX-1

SMILES: CCc1cccc2c3c([nH]c12)C(CC)(CC(=O)O)OCC3=O (stereo not shown) [4-oxo metabolite]
activity in blocking prostaglandin synthesis (prostaglandin synthesis): active in blocking prostaglandin synthesis
oral in vivo antiinflammatory activity [1]: had oral in vivo antiinflammatory activity

IC50 (human COX-2 (rhCOX-2); Table 1): 2100 nM
inhibition at 90 µM (human COX-1 (rhCOX-1); [4]): 43%
SMILES: CCC1(CC(=O)O)OCC(=O)c2c1[nH]c1ccccc21 (stereo not shown) [Example 1, (1-Ethyl-4-oxo-1,3,4,9-tetrahydro-pyrano[3,4-b]indol-1-yl)-acetic acid]

IC50 (human COX-2 (rhCOX-2); Table 1): 3200 nM
inhibition at 90 µM (human COX-1 (rhCOX-1); [4]): 44%
SMILES: CCCC1(CC(=O)O)OCC(=O)c2c1[nH]c1ccccc21 (stereo not shown) [Example 2, (1-Propyl-4-oxo-1,3,4,9-tetrahydro-pyrano[3,4-b]indol-1-yl)-acetic acid]

inhibition at 3 µM (human COX-2 (rhCOX-2); [5]): 8%
SMILES: COCC1(CC(=O)O)OCC(=O)c2c1[nH]c1ccccc21 (stereo not shown) [Example 3, (1-Methoxymethyl-4-oxo-1,3,4,9-tetrahydro-pyrano[3,4-b]indol-1-yl)-acetic acid]

IC50 (human COX-2 (rhCOX-2); Table 1): 1900 nM
IC50 (human COX-1 (rhCOX-1); Table 1, rhCOX-1, read-out: % Inhibition of rhCOX-1 (value in parentheses, IC50)): > 270000 nM
SMILES: CCc1cccc2c3c([nH]c12)C(CC)(CC(=O)O)OCC3=O (stereo not shown) [Example 4, 1,8-Diethyl-4-oxo-1,3,4,9-tetrahydro-pyrano-[3,4-b]indole-1-acetic acid]

IC50 (human COX-2 (rhCOX-2); Table 1): 1200 nM
SMILES: CCC1(CC(=O)O)OCC(=O)c2c1[nH]c1cccc(Cl)c21 (stereo not shown) [Example 5, (5-Chloro-1-ethyl-4-oxo-1,3,4,9-tetrahydro-pyrano[3,4-b]indol-1-yl)-aceticacid]

IC50 (human COX-2 (rhCOX-2); Table 1): 1100 nM
SMILES: CCC1(CC(=O)O)OCC(=O)c2c1[nH]c1cccc(Br)c21 (stereo not shown) [Example 6, (5-Bromo-1-ethyl-4-oxo-1,3,4,9-tetrahydro-pyrano[3,4-b]indol-1-yl)-acetic acid]

inhibition at 1 µM (human COX-2 (rhCOX-2); [5]): 7%
SMILES: CCC1(CC(=O)O)OCC(=O)c2c1[nH]c1cccc(C#N)c21 (stereo not shown) [Example 7, 5-Cyano-1-ethyl-4-oxo-1,3,4,9-tetrahydropyrano[3,4-b]indole-1-acetic acid]

IC50 (human COX-2 (rhCOX-2); Table 1): 370 nM
inhibition at 3 µM (human COX-1 (rhCOX-1); Table 1, rhCOX-1, at 3 μM): 78%
SMILES: C=CCc1c(F)ccc2c3c([nH]c12)C(CC)(CC(=O)O)OCC3=O (stereo not shown) [Example 8, 8-Allyl-1-ethyl-7-fluoro-4-oxo-1,3,4,9-tetrahydropyrano[3,4-b]indole-1-acetic acid]

inhibition at 3 µM (human COX-2 (rhCOX-2); [6]): 26%
SMILES: CCC1(CC(=O)O)CCC(=O)c2c1[nH]c1ccccc21 (stereo not shown) [Example 9, [1-Ethyl-4oxo-2,3,4,9-tetrahydro-1H-(carbazol-1-yl)]-acetic acid]

IC50 (human COX-2 (rhCOX-2); Table 2): 2000 nM
inhibition at 90 µM (human COX-1 (rhCOX-1); [7]): 26%
SMILES: CCc1cccc2c3c([nH]c12)C(CC)(CC(=O)O)CCC3=O (stereo not shown) [Example 10, [1,8-Diethyl-4-oxo-2,3,4,9-tetrahydro-1H-(carbazol-1-yl)]-acetic acid]

inhibition at 3 µM (human COX-2 (rhCOX-2); [6]): 40%
inhibition at 90 µM (human COX-1 (rhCOX-1); [7]): 85%
SMILES: CCC1(CC(=O)O)CCC(=O)c2c1[nH]c1c(C(C)C)cccc21 (stereo not shown) [Example 11, [1-Ethyl-8-isopropyl-4-oxo-2,3,4,9-tetrahydro-1H-(carbazol-1-yl)]-acetic acid]

inhibition at 1 µM (human COX-2 (rhCOX-2); [6]): 12%
inhibition at 30 µM (human COX-1 (rhCOX-1); Table 2, rhCOX-1, at 30 μM, read-out: % Inhibn of rhCOX-1): 5%
SMILES: CCC1(CC(=O)O)CCC(=O)c2c1[nH]c1cccc(Cl)c21 (stereo not shown) [Example 12, [1-Ethyl-5-chloro-4-oxo-2,3,4,9-tetrahydro-1H-(carbazol-1-yl)]-acetic acid]

inhibition at 1 µM (human COX-2 (rhCOX-2); [6]): 25%
SMILES: CCC1(CC(=O)O)CCC(=O)c2c1[nH]c1c(F)ccc(F)c21 (stereo not shown) [Example 13, (1-Ethyl-5,8-difluoro-4-oxo-2,3,4,9-tetrahydro-1H-(carbazol-1-yl))-acetic acid]

IC50 (human COX-2 (rhCOX-2); Table 2): 700 nM
inhibition at 23 µM (human COX-1 (rhCOX-1); Table 2, rhCOX-1, at 23 μM, read-out: % Inhibn of rhCOX-1): 50%
SMILES: CCC1(CC(=O)O)CCC(=O)c2c1[nH]c1c(F)c(F)ccc21 (stereo not shown) [Example 14, (7.8-Difluoro-1-ethyl-4-oxo-2,3,4,9-tetrahydro-1H-(carbazol-1-yl))-acetic acid]

inhibition at 1 µM (human COX-2 (rhCOX-2); [6]): 30%
SMILES: C=CCC1(CC(=O)O)CCC(=O)c2c1[nH]c1c(F)ccc(F)c21 (stereo not shown) [Example 15, (1-Allyl-5,8-difluoro-4-oxo-2,3,4,9-tetrahydro-1H-(carbazol-1-yl))-acetic acid]

inhibition at 1 µM (human COX-2 (rhCOX-2); [6]): 29%
SMILES: CCCC1(CC(=O)O)CCC(=O)c2c1[nH]c1c(F)ccc(F)c21 (stereo not shown) [Example 16, (5,8-Difluoro-4-oxo-1-propyl-2,3,4,9-tetrahydro-1H-(carbazol-1-yl))-aceticacid]

inhibition at 1 µM (human COX-2 (rhCOX-2); [6]): 13%
SMILES: CCCC1(CC(=O)O)CCC(=O)c2c1[nH]c1cc(F)cc(F)c21 (stereo not shown) [Example 17, (5,7-Difluoro-1-propyl-4-oxo-2,3,4,9-tetrahydro-1H-(carbazol-1-yl))-aceticacid]

inhibition at 3.3 µM (human COX-2 (rhCOX-2); [8]): 50%
inhibition at 90 µM (human COX-1 (rhCOX-1); [9]): 96%
SMILES: CCc1cccc2c3c([nH]c12)C(CC)(CC(=O)O)OCC3=NO (stereo not shown) [Example 18, [1,8-Diethyl-4-hydroxyimino-1,3,4,9-tetrahydro-pyrano[3.4-b]indol-1-yl]-ace tic acid]

SMILES: CCc1cccc2c3c([nH]c12)C(CC)(CC(=O)O)OCC3=NNS(C)(=O)=O (stereo not shown) [Example 19, [1,8-Diethyl-4-(methanesulfonyl-hydrazono)-1,3,4,9-tetrahydro-pyrano [3,4-b]indol-1-yl]-acetic acid sodium salt]
inhibition at 3.3 µM (human COX-2 (rhCOX-2); [8]): 50%
inhibition at 90 µM (human COX-1 (rhCOX-1); [9]): 96%

inhibition at 1 µM (human COX-2 (rhCOX-2); [8]): 18%
SMILES: CCc1cccc2c3c([nH]c12)C(CC)(CC(=O)O)CCC3=NO (stereo not shown) [Example 20, (1,8-Diethyl-4-hydroxyimino-2,3,4,9-tetrahydro-1H-carbazol-1-yl)-acetic acid]

SMILES: CCc1cccc2c3c([nH]c12)C(CC)(CC(=O)O)OCC3 (stereo not shown) [etodolac]
selectivity for inhibition of COX-2 (COX-2): tenfold
G.I. safety ([2]; in vivo): improved G.I. safety

SMILES: COc1ccc2c(c1)c(CC(=O)O)c(C)n2C(=O)c1ccc(Cl)cc1 [indomethacin]
usefulness in the treatment of Alzheimer's disease [3]: useful in the treatment of Alzheimer's disease
selectivity for inhibition of COX-2 (COX-2): relatively non-selective inhibitor of COX-2
G.I. safety ([2]; literature): adverse G.I. side effects
